One data set is described as follows: in vitro. To be noted: human, liver microsomes, t1/2. On the technique in general: Microsomes from liver hold many membrane-bound enzymes, among them those of drug oxidation.
Data set [1] can be described thus: Lipophilicity, log D of the compound after 1 hr by LC/MS/MS analysis at pH 7.2. Format: physicochemical. Conditions: buffer.
Data set [2] is described as follows: Dose normalized volume of distribution at steady state in Sprague-Dawley rat at 1 mg/kg, iv and 5 mg/kg, po. The format is ADME, organism-based. Conditions: in vivo, read-out: Vdss/dose.
Data set [3] is described as follows: Dose normalized oral bioavailability in Sprague-Dawley rat at 5 mg/kg. To be noted: in vivo, read-out: F/dose. Format: ADME, organism-based.
The test system of data set [4] is Rattus norvegicus. The experiment in a line: Dose normalized AUC in Sprague-Dawley rat at 5 mg/kg, po. Format: ADME, organism-based. Also noted: dose 5 mg/kg, route oral. To be noted: in vivo.
Data set [5] in a line: Half life in Sprague-Dawley rat hepatocytes at 1 uM by LC/MS/MS analysis. Format: ADME, cell-based, Liver, Hepatocyte.
Data set [6] in a line: Dose normalized clearance in Sprague-Dawley rat at 1 mg/kg, iv. Format: ADME, organism-based. Conditions: in vivo, read-out: Dose normalized clearance. Also noted: dose 1 mg/kg, route intravenous.
The subject of data set [7] is Rattus norvegicus. Briefly: Dose normalized Cmax in Sprague-Dawley rat at 5 mg/kg, po. The format is ADME, organism-based. On the set-up: dose 5 mg/kg, route oral. Conditions: in vivo.
The test system of the next data set is Liver microsomes. To be noted: human.
Data set [8] is described as follows: Apparent permeability from apical to basal side of MDCK cells at 10 uM. Format: ADME, cell-based, Canis lupus familiaris. To be noted: dog.

We go through 37 molecules from ChEMBL document CHEMBL2150873, “Identification of imidazo-pyrrolopyridines as novel and potent JAK1 inhibitors” (J Med Chem, 2012).

For the molecule `COC(=O)N[C@H]1CC[C@H](n2cnc3cnc4[nH]ccc4c32)CC1`, in “in vitro”, the half-life (as a rule, the time needed for the level to fall by half in the phase considered) is > 10 h. In addition, in [1], the pH-dependent lipophilicity (logD) – broadly, the decadic logarithm of the distribution of all forms, ionised or not, between an organic phase and buffer at a given pH – at 1 h stood at 1.9.

For `CC(C)(C)OC(=O)N[C@@H]1CC[C@@H](n2cnc3cnc4[nH]ccc4c32)C1`, the Vd in data set [2] amounted to 2.53 L/kg. The bioavailability in data set [3] is 73%. The logD at 1 h in data set [1] turned out to be 2.99. Further, the AUC/dose with Rattus norvegicus [4] was determined as 1.3 µM·h. For the same molecule, the half-life at 1 µM in data set [5] was 2.2 h. The clearance – broadly, the rate of elimination divided by the concentration – in data set [6] was found to be 140 mL/min/kg. In the data set with Rattus norvegicus [7], this molecule came in with a Cmax/dose of 1100 nM. In the data set with Liver microsomes, the t1/2 worked out at 5.6 h. For the same molecule, the Papp A→B – broadly, the apparent permeability from the apical to the basolateral side of a cell layer – at 10 µM in data set [8] worked out at 11.2 ×10⁻⁶ cm/s.

In the case of `N#CCC(=O)N1CCC[C@@H](n2cnc3cnc4[nH]ccc4c32)C1`, the Vd in [2] was 1.87 L/kg. The bioavailability in data set [3] came to 5%. In addition, in the data set “in vitro”, the half-life was 1.4 h. Moreover, in data set [1], the logD at 1 h came out at 0.39. For the same molecule, the AUC/dose with Rattus norvegicus [4] is 0.3 µM·h. Besides, the half-life at 1 µM in data set [5] is > 10 h. Moreover, in data set [6], the clearance turned out to be 85 mL/min/kg. In the data set with Rattus norvegicus [7], the Cmax/dose was found to be 50 nM. Besides, in data set [8], the apparent permeability from apical to basolateral (Papp A→B) at 10 µM turned out to be 0.3 ×10⁻⁶ cm/s.

Consider `c1ccc(CN2CCC(n3cnc4cnc5[nH]ccc5c43)CC2)cc1`, for which the Vd in data set [2] amounted to 6.39 L/kg. For the same molecule, the bioavailability in [3] was < 1%. Also, in “in vitro”, the half-life was 0.8 h. In addition, in data set [1], the logD at 1 h was 2.9. Besides, the half-life at 1 µM in [5] was 0.5 h. The clearance in [6] turned out to be 170 mL/min/kg. This molecule showed a Cmax/dose in the data set on Rattus norvegicus [7] of 40 nM. Besides, the apical-to-basolateral permeability (Papp A→B) at 10 µM in data set [8] is 32.3 ×10⁻⁶ cm/s.

`c1ncc(CN2CCC(n3cnc4cnc5[nH]ccc5c43)CC2)cn1` had a half-life in the data set “in vitro” of 4 h.

Molecule `N#CCC(=O)N1CCC(n2cnc3cnc4[nH]ccc4c32)CC1` showed a half-life in the data set “in vitro” of 2 h.

In the case of `O=C(c1ccccc1)N1CCC(n2cnc3cnc4[nH]ccc4c32)CC1`, the half-life in the data set “in vitro” is 1.4 h. The half-life values of the last two molecules are within 1.5-fold of each other.

`CC(C)CC(=O)N1CCC(n2cnc3cnc4[nH]ccc4c32)CC1` showed a half-life in “in vitro” of 0.5 h.

In the data set “in vitro”, `O=S(=O)(c1ccccc1)N1CCC(n2cnc3cnc4[nH]ccc4c32)CC1` showed a half-life of 0.7 h.

Take `CS(=O)(=O)N1CCC(n2cnc3cnc4[nH]ccc4c32)CC1`: the Vd in [2] came out at 1.46 L/kg. Also, in data set [3], the bioavailability stood at 36%. This molecule gave a half-life in the data set “in vitro” of 2.2 h. This molecule also gave a logD at 1 h in data set [1] of 1.04. Besides, the AUC/dose in the data set with Rattus norvegicus [4] was determined as 2.3 µM·h. In addition, the half-life at 1 µM in data set [5] was > 10 h. In addition, the clearance in data set [6] was 45 mL/min/kg. The Cmax/dose in the data set on Rattus norvegicus [7] stood at 2900 nM. Also, the Papp A→B at 10 µM in data set [8] was 1.2 ×10⁻⁶ cm/s.

For the molecule `CCN1CCC(n2cnc3cnc4[nH]ccc4c32)CC1`, the half-life in “in vitro” was 2.5 h.

Turning to `FC(F)(F)CN1CCC(n2cnc3cnc4[nH]ccc4c32)CC1`, the half-life in “in vitro” was 3.8 h.

As for `N#CCCN1CCC(n2cnc3cnc4[nH]ccc4c32)CC1`, the Vd in data set [2] turned out to be 2.37 L/kg. In addition, in data set [3], the bioavailability came to 48%. The same molecule had a half-life in the data set “in vitro” of 7.5 h. Also, the logD at 1 h in [1] stood at 1.72. Further, in the data set with Rattus norvegicus [4], the AUC/dose was determined as 1.6 µM·h. In addition, the half-life at 1 µM in [5] is > 10 h. Besides, the clearance in data set [6] was found to be 96 mL/min/kg. In addition, in the data set on Rattus norvegicus [7], the Cmax/dose came to 1800 nM. Moreover, the Papp A→B at 10 µM in data set [8] was found to be 8.2 ×10⁻⁶ cm/s.

For the molecule `CN(C)CC(=O)N1CCC(n2cnc3cnc4[nH]ccc4c32)CC1`, in the data set “in vitro”, the half-life is 1.5 h.

Consider `CN1CCC[C@@H]1C(=O)N1CCC(n2cnc3cnc4[nH]ccc4c32)CC1`, for which the half-life in the data set “in vitro” is 2.8 h.

`CN1CCC[C@H]1C(=O)N1CCC(n2cnc3cnc4[nH]ccc4c32)CC1`: in “in vitro”, the half-life was 4.7 h.

The molecule `CC(C)N1CCC[C@H]1C(=O)N1CCC(n2cnc3cnc4[nH]ccc4c32)CC1` showed a half-life in “in vitro” of 1.3 h. This half-life lies about 3.6-fold lower than the previous one.

For `CN1CCCC[C@H]1C(=O)N1CCC(n2cnc3cnc4[nH]ccc4c32)CC1`, in “in vitro”, the half-life was 3.5 h.

Turning to `CC1(n2cnc3cnc4[nH]ccc4c32)CCNCC1`, the half-life in “in vitro” was > 10 h.

Consider `CC1(n2cnc3cnc4[nH]ccc4c32)CCN(Cc2cncnc2)CC1`, for which the half-life in the data set “in vitro” was 1.6 h.

For the molecule `CC1(n2cnc3cnc4[nH]ccc4c32)CCN(S(C)(=O)=O)CC1`, in data set [2], the Vd is 2.72 L/kg. Besides, the bioavailability in [3] was 74%. For the same molecule, in the data set “in vitro”, the half-life was > 10 h. In data set [1], the pH-dependent lipophilicity (logD) at 1 h stood at 1.14. In addition, in the data set on Rattus norvegicus [4], the AUC/dose turned out to be 2.3 µM·h. Moreover, the half-life at 1 µM in [5] is > 10 h. For the same molecule, the clearance in data set [6] was 82 mL/min/kg. This molecule registered a Cmax/dose with Rattus norvegicus [7] of 800 nM. In addition, the Papp A→B at 10 µM in data set [8] was 2.5 ×10⁻⁶ cm/s.

As for `CC1(n2cnc3cnc4[nH]ccc4c32)CCN(CC(F)(F)F)CC1`, in “in vitro”, the half-life was 1.6 h.

Consider `CC1(n2cnc3cnc4[nH]ccc4c32)CCN(CCC#N)CC1`, for which the half-life in “in vitro” was 2.3 h. This half-life and that of the molecule before are within 1.5-fold of each other.

`CC(C)(C)OC(=O)N[C@H]1CC[C@H](n2cnc3cnc4[nH]ccc4c32)CC1` gave a half-life in “in vitro” of 1.5 h. The same molecule registered a logD at 1 h in [1] of 3.2.

For `N[C@H]1CC[C@H](n2cnc3cnc4[nH]ccc4c32)CC1`, the Vd in data set [2] turned out to be 13.9 L/kg. In addition, the bioavailability in data set [3] is < 1%. This molecule gave a half-life in the data set “in vitro” of 3.7 h. Besides, the logD at 1 h in data set [1] is -0.44. The same molecule came in with an AUC/dose with Rattus norvegicus [4] of 0.22 µM·h. Moreover, in data set [5], the half-life at 1 µM was > 10 h. For the same molecule, the clearance in data set [6] is 65 mL/min/kg. The molecule also registered a Cmax/dose in the data set with Rattus norvegicus [7] of 20 nM. Also, in [8], the Papp A→B at 10 µM worked out at 0.2 ×10⁻⁶ cm/s.

In the data set “in vitro”, `N[C@H]1CC[C@@H](n2cnc3cnc4[nH]ccc4c32)CC1` had a half-life of 5.5 h.

As for `c1cc2c(ncc3ncn([C@H]4CC[C@H](N5CCOCC5)CC4)c32)[nH]1`, the half-life in “in vitro” was 6.8 h. The half-life values of the last two molecules are within 1.5-fold of each other.

The molecule `c1cc2c(ncc3ncn([C@H]4CC[C@@H](N5CCOCC5)CC4)c32)[nH]1` gave a half-life in the data set “in vitro” of 3.7 h.

`CC(C)C(=O)N[C@H]1CC[C@H](n2cnc3cnc4[nH]ccc4c32)CC1`: the half-life in the data set “in vitro” was 2.7 h.

Turning to `c1cc2c(ncc3ncn([C@H]4CC[C@H](NCC5CC5)CC4)c32)[nH]1`, the half-life in the data set “in vitro” was 4.7 h. Against the preceding molecule, the half-life is about […]-fold higher.

As for `N#CCCN[C@H]1CC[C@H](n2cnc3cnc4[nH]ccc4c32)CC1`, the Vd in [2] came to 3.96 L/kg. In addition, the bioavailability in [3] amounted to 28%. In “in vitro”, this molecule had a half-life of 5 h. This molecule showed a pH-dependent lipophilicity (logD) at 1 h in data set [1] of 0.97. In the data set with Rattus norvegicus [4], this molecule yielded an AUC/dose of 0.7 µM·h. For the same molecule, in data set [5], the half-life at 1 µM is 9.8 h. In addition, the clearance in data set [6] stood at 120 mL/min/kg. For the same molecule, the Cmax/dose in the data set on Rattus norvegicus [7] was determined as 600 nM. Besides, in data set [8], the Papp A→B at 10 µM amounted to 1.5 ×10⁻⁶ cm/s.

On to `N#Cc1cccc(CN[C@H]2CC[C@H](n3cnc4cnc5[nH]ccc5c43)CC2)c1`, for which, in “in vitro”, the half-life was 0.8 h.

Consider `CS(=O)(=O)N[C@H]1CC[C@H](n2cnc3cnc4[nH]ccc4c32)CC1`, for which the half-life in the data set “in vitro” was 1.8 h.

`COC(=O)N(C)[C@H]1CC[C@H](n2cnc3cnc4[nH]ccc4c32)CC1`: the half-life in the data set “in vitro” is > 10 h.

Turning to `CC(C)(C)OC(=O)N[C@@H]1CC[C@@H](n2cnc3cnc4[nH]ccc4c32)C1` (racemic), in the data set “in vitro”, the half-life was 5.5 h.

In the case of `COC(=O)N[C@@H]1CC[C@@H](n2cnc3cnc4[nH]ccc4c32)C1` (racemic), in the data set “in vitro”, the half-life was 5.8 h. The molecule also came in with a pH-dependent lipophilicity (logD) at 1 h in data set [1] of 1.2.

In “in vitro”, `CC(C)(C)OC(=O)N[C@H]1CC[C@@H](n2cnc3cnc4[nH]ccc4c32)C1` (racemic) gave a half-life of 1.8 h.
